The source of these data is paper PMC9057277 (RSC Advances, 2020).

One series concerns the target T1, recombinant human COX-2 (Homo sapiens, UniProt P35354).
T1 construct: purchased Cayman Chemical, Ann Arbor, MI 700100
T1 sequence (P35354 18-604): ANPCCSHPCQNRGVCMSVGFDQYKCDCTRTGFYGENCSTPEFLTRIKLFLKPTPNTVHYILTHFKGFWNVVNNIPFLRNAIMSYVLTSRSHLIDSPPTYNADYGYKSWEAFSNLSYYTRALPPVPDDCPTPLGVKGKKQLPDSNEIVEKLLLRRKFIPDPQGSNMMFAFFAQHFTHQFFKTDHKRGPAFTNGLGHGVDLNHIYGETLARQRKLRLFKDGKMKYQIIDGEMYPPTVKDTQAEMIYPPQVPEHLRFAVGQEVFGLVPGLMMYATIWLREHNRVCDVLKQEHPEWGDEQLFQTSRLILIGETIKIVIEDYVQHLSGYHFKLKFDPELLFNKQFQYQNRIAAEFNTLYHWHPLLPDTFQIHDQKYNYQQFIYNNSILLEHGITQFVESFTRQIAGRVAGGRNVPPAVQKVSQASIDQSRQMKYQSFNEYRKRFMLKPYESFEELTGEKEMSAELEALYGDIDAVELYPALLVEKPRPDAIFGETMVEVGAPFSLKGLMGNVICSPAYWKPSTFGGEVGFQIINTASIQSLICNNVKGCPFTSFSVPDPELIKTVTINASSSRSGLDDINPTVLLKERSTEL
In words: COX Fluorescent Inhibitor Screening Assay Kit, COX-2. The format is biochemical. The note with it: for Selectivity index: IC50 (COX-1)/IC50 (COX-2).

In another series the target is T2, purified ovine COX-1 (Ovis aries, UniProt P05979).
T2 sequence (P05979 25-600): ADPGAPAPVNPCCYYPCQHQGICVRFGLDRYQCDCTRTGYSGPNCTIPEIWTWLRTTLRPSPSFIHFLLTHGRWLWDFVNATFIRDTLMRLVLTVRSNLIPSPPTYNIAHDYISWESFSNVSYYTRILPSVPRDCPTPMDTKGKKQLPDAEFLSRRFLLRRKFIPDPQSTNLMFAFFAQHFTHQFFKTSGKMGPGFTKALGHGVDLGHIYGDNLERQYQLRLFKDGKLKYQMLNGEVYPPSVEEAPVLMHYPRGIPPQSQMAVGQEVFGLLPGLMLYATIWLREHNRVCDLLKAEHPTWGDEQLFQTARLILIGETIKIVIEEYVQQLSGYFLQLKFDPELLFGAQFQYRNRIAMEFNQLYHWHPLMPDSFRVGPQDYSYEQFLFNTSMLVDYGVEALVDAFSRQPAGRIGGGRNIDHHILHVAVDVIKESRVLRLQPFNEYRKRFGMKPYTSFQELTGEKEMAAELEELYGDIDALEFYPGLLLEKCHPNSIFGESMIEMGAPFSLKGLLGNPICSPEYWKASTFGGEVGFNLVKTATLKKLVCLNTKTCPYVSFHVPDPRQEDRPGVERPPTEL
Put plainly: COX Fluorescent Inhibitor Screening Assay Kit, COX-1.

Another series can be described thus: log D7.4 by HPLC method. The note with it: HPLC retention on ODP-50 4B column (Shodex Asahipak); pH 7.4, HPLC-based method. The format is physicochemical.
Series [1] is described as follows: Ex vivo biodistribution in healthy rats. The note with it: i.v., n = 8, mean ± SD; for Biodistribution BAT: brown adipose tissue; for Biodistribution WAT: white adipose tissue.
Series [2] is described as follows: Metabolic stability in vivo: blood clearance, blood components, radiometabolites. Also noted: species or system male Wistar rats. The note with it: for half-life: male, Wistar, rat, arterial blood, iv, 70 MBq, i.v., arterial blood samples; for half-life / Intact compound in blood plasma: rats; for Intact compound in blood plasma: radio-HPLC.

Read-outs that look alike come from different tables or passages of the source. Some results are limits rather than exact numbers.

Protocol for purified ovine COX-1: 7.4.1 COX inhibition assay
The COX inhibition potency against ovine COX-1 and human COX-2 was determined using the
fluorescence-based COX assay ’COX Fluorescent Inhibitor Screening Assay Kit‘ (catalog number
reported by us.7 In brief, as a measure of COX mediated conversion of arachidonic acid to PG H2 in the
presence of different inhibitor concentrations this assay utilizes the peroxidase component of COX and
analyzes the formation of fluorescent resorufin. All compounds were assayed in a concentration range
of 10 nM to 100 μM, and every inhibitor concentration was assayed in duplicate.
as internal control. IC50 values were estimated using a nonlinear logistic regression ﬁtting procedure
(sigmoidal dose−response model) with Prism Software.

Regarding `[2H]C([2H])(F)c1cc(-c2ccc(C)cc2)n(-c2ccc(S(C)(=O)=O)cc2)n1` [[D2]5a], the IC50 (as a rule, the concentration that inhibits the measured activity by half) at recombinant human COX-2 is 0.97 µM; against purified ovine COX-1, over 100 µM. At recombinant human COX-2, the Selectivity index is over 103.

For `Cc1ccc(-c2cc(CCF)n(-c3ccc(S(C)(=O)=O)cc3)n2)cc1` [5d], the half-inhibitory concentration (IC50) on recombinant human COX-2 and against purified ovine COX-1 was over 100 µM throughout.

In the case of `[2H]C([2H])([18F])c1cc(-c2ccc(C)cc2)n(-c2ccc(S(C)(=O)=O)cc2)n1` [[D2,^18F]5a], the chromatographic logD (usually lipophilicity estimated from chromatographic retention) in “log D7.4 by HPLC method” is 2.72. In series [1] (5 min p.i.), the “Biodistribution BAT” value was found to be 3.31 ± 0.56 SUV, the Biodistribution adrenals is 3.28 ± 0.52 SUV, the Biodistribution blood is on record as 0.42 ± 0.04 SUV and the Biodistribution brain was determined as 0.54 ± 0.12 SUV. In series [1] (5 min p.i.), the Biodistribution femur came to 0.84 ± 0.09 SUV, the Biodistribution harderian gland is listed as 1.94 ± 0.14 SUV, the Biodistribution heart came out at 0.76 ± 0.12 SUV and the Biodistribution intestine was determined as 10.14 ± 1.96 %ID. In series [1] (5 min p.i.), this molecule returned a Biodistribution kidneys of 1.58 ± 0.24 SUV, a Biodistribution liver of 4.16 ± 0.29 SUV, a Biodistribution lung of 0.92 ± 0.14 SUV and a Biodistribution muscle of 0.52 ± 0.08 SUV. For the same molecule, in series [1] (5 min p.i.), the Biodistribution pancreas is recorded as 1.37 ± 0.13 SUV, the “Biodistribution skin & hair” value is on record as 0.9 ± 0.15 SUV, the Biodistribution spleen was determined as 0.56 ± 0.1 SUV and the Biodistribution stomach was 1.14 ± 0.57 %ID. In series [1] (5 min p.i.), the Biodistribution testes worked out at 0.48 ± 0.04 SUV, the Biodistribution thymus is reported as 0.95 ± 0.08 SUV, the Biodistribution thyroid gland was 0.95 ± 0.18 SUV and the “Biodistribution urine (calc.)” value was 0.15 ± 1.91 %ID. Further, in series [1] (5 min p.i.), the “Biodistribution WAT” value was found to be 2.79 ± 1.06 SUV. In series [1] (60 min p.i.), the “Biodistribution BAT” value worked out at 1.21 ± 0.11 SUV, the Biodistribution adrenals was determined as 0.91 ± 0.15 SUV, the Biodistribution blood worked out at 0.11 ± 0.01 SUV and the Biodistribution brain is 0.11 ± 0.02 SUV. In series [1] (60 min p.i.), the “Biodistribution femur (femur uptake, 18F-defluorination)” value stood at 2.6 ± 0.3 SUV; the Biodistribution harderian gland was 0.5 ± 0.08 SUV; the Biodistribution heart turned out to be 0.16 ± 0.03 SUV; the Biodistribution intestine is 33.02 ± 3.53 %ID. In series [1] (60 min p.i.), the Biodistribution kidneys amounted to 0.47 ± 0.06 SUV, the Biodistribution liver turned out to be 0.92 ± 0.19 SUV, the Biodistribution lung is recorded as 0.21 ± 0.03 SUV and the Biodistribution muscle was determined as 0.19 ± 0.07 SUV. In addition, in series [1] (60 min p.i.), the Biodistribution pancreas is reported as 0.62 ± 0.37 SUV, the “Biodistribution skin & hair” value turned out to be 0.25 ± 0.04 SUV, the Biodistribution spleen is 0.22 ± 0.12 SUV and the Biodistribution stomach is reported as 1.19 ± 0.49 %ID. In series [1] (60 min p.i.), the Biodistribution testes amounted to 0.21 ± 0.04 SUV, the Biodistribution thymus was 0.21 ± 0.04 SUV, the Biodistribution thyroid gland came to 0.45 ± 0.06 SUV and the “Biodistribution urine (calc.)” value is 9.12 ± 3.68 %ID. For the same molecule, in series [1] (60 min p.i.), the “Biodistribution WAT” value is 2.4 ± 0.28 SUV. Also, the half-life in series [2] (read-out: t1/2 distribution (blood clearance of intact compound)) amounted to 1.3 min. In addition, in series [2] (read-out: t1/2 elimination (blood clearance of intact compound)), the half-life worked out at 17 min. Moreover, in series [2] (rat blood, 60 min p.i., + TCA), the “Radioactivity distribution in blood components: erythrocytes” value amounted to 18%, the “Radioactivity distribution in blood components: plasma” value came out at 73% and the “Radioactivity distribution in blood components: plasma supernatant” value is 39%. Besides, the “Radioactivity distribution in blood components: plasma pellet (bound to plasma proteins)” value in series [2] (rat blood, 60 min p.i., + TCA precipitation) was found to be 29%. Moreover, in series [2] (rat blood, 60 min p.i., - TCA), the “Radioactivity distribution in blood components: erythrocytes” value was determined as 16%, the “Radioactivity distribution in blood components: plasma” value stood at 70%, the “Radioactivity distribution in blood components: plasma pellet” value stood at 1% and the “Radioactivity distribution in blood components: plasma supernatant” value is 73%. In series [2] (20 min p.i.), the “Intact compound in blood plasma” value stood at 54%. In addition, the “Intact compound in blood plasma” value in series [2] (60 min p.i.) amounted to 52%.

For the molecule `CS(=O)(=O)c1ccc(-n2nc(CCF)cc2-c2ccccc2)cc1` [5c], the results for the concentration for half-maximal inhibition (IC50) on recombinant human COX-2 and at purified ovine COX-1 were 4.97 µM and over 100 µM, respectively. Besides, the Selectivity index at recombinant human COX-2 was over 20.

With `Cc1ccc(-c2cc(CCF)nn2-c2ccc(S(C)(=O)=O)cc2)cc1` [5b], on recombinant human COX-2, the IC50 was determined as 2.53 µM and the Selectivity index came out at 15. For the same molecule, half-maximal inhibition on purified ovine COX-1 (IC50) required 38.5 µM.
